Test results from US12447153B2, “HER2 mutation inhibitors” (Array BioPharma Inc., priority 2021, dated 2025).

Legend:
[1] = target: ErbB2 with Exon 20 YVMA insertion (HER2-YVMA) (Homo sapiens (Human), UniProt P04626, INS775YVMA); experiment: Cellular Phosphorylation Assay, Assay 4 (constitutive ErbB2 phosphorylation, NIH 3T3 cells); assay type: cell-based
ErbB2 WT = ErbB2 WT (Homo sapiens (Human), UniProt P04626); experiment: ErbB Enzyme Assay (HTRF KinEASE-TK), Assay 2; assay type: biochemical
Chain of ErbB2 WT (P04626 23-1255): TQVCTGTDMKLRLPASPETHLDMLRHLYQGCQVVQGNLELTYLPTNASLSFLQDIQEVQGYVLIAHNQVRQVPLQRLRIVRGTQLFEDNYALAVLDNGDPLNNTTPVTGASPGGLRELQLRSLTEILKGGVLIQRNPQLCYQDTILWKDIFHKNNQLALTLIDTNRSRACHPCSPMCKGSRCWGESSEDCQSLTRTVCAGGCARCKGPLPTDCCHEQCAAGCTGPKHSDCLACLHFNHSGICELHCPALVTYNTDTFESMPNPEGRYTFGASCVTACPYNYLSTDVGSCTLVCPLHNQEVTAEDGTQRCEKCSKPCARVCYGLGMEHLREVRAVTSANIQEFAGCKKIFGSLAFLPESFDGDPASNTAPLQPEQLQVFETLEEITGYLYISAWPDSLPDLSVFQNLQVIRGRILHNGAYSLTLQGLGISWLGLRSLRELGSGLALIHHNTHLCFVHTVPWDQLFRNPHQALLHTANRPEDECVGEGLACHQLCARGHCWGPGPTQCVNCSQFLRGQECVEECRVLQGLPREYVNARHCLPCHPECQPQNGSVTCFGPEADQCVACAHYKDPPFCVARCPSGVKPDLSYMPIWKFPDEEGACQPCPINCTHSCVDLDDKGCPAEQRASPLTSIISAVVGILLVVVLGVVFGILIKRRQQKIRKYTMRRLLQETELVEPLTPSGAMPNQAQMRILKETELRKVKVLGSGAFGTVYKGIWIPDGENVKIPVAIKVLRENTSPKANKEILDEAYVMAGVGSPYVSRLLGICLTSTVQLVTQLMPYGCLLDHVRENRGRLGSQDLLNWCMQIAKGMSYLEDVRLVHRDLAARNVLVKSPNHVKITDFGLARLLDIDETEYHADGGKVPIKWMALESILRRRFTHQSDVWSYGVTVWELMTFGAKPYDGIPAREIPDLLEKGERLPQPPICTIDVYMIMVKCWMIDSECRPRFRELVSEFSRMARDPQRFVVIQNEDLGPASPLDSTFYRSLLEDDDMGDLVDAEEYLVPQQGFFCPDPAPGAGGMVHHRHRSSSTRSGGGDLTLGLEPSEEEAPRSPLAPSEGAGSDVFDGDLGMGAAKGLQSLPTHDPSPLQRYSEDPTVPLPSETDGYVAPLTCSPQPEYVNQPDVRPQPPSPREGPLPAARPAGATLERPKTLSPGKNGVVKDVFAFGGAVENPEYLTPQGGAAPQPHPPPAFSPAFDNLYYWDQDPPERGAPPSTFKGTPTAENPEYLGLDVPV

EGFR = EGFR (Homo sapiens (Human), UniProt P00533); experiment: ErbB Enzyme Assay (HTRF KinEASE-TK), Assay 3; assay type: biochemical
Chain of EGFR (P00533 25-1210): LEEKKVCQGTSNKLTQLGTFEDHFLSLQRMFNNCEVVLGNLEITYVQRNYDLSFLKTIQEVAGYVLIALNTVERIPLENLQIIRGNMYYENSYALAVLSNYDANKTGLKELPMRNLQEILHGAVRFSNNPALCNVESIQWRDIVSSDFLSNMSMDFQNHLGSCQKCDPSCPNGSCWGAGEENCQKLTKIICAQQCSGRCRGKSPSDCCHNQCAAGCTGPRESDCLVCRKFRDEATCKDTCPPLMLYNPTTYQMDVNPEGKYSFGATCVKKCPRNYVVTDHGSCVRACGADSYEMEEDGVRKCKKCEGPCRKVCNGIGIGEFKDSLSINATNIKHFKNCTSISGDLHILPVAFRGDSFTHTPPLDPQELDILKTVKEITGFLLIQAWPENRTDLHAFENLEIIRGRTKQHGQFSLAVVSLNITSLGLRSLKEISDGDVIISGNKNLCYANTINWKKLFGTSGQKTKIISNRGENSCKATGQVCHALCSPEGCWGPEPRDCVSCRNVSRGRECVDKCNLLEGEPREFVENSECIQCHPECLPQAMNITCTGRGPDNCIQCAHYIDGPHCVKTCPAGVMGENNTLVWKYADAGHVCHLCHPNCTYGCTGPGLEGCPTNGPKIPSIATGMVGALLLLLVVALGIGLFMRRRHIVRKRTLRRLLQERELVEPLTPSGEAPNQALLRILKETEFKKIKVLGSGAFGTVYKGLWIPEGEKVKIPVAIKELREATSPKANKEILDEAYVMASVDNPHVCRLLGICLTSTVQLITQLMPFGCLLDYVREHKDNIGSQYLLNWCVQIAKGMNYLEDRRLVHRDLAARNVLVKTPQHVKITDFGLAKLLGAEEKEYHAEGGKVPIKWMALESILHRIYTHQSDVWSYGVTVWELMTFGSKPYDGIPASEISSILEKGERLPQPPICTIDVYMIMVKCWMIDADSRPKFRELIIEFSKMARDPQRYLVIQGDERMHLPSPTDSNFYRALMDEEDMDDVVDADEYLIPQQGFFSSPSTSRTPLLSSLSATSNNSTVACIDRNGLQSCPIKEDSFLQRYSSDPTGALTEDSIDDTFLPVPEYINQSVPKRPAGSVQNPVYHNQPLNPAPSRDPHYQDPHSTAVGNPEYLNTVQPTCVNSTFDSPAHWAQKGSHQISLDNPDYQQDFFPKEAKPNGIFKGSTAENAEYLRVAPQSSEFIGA

BCRP [2] = experiment: BCRP MDCKII efflux assay (Assay 7); assay type: in vitro ADME; conditions: dog; efflux ratio Papp(B-A)/Papp(A-B), BCRP MDCKII cells; read-out: Assay 7 Pe Ratio
Method: (§1) Assay conditions included with and without the BCRP-specific inhibitor, KO143, at a concentration of 0.3 μM to ascertain the contribution of BCRP to the efflux value of the test compound.
(§2) Final organic concentration in the assay was 1%.

MDR1 (P-gp) = MDR1 (P-gp) (Homo sapiens (Human), UniProt P08183); experiment: in vitro; conditions: pig, LLC-PK1
Chain of MDR1 (P-gp) (P08183 whole entry): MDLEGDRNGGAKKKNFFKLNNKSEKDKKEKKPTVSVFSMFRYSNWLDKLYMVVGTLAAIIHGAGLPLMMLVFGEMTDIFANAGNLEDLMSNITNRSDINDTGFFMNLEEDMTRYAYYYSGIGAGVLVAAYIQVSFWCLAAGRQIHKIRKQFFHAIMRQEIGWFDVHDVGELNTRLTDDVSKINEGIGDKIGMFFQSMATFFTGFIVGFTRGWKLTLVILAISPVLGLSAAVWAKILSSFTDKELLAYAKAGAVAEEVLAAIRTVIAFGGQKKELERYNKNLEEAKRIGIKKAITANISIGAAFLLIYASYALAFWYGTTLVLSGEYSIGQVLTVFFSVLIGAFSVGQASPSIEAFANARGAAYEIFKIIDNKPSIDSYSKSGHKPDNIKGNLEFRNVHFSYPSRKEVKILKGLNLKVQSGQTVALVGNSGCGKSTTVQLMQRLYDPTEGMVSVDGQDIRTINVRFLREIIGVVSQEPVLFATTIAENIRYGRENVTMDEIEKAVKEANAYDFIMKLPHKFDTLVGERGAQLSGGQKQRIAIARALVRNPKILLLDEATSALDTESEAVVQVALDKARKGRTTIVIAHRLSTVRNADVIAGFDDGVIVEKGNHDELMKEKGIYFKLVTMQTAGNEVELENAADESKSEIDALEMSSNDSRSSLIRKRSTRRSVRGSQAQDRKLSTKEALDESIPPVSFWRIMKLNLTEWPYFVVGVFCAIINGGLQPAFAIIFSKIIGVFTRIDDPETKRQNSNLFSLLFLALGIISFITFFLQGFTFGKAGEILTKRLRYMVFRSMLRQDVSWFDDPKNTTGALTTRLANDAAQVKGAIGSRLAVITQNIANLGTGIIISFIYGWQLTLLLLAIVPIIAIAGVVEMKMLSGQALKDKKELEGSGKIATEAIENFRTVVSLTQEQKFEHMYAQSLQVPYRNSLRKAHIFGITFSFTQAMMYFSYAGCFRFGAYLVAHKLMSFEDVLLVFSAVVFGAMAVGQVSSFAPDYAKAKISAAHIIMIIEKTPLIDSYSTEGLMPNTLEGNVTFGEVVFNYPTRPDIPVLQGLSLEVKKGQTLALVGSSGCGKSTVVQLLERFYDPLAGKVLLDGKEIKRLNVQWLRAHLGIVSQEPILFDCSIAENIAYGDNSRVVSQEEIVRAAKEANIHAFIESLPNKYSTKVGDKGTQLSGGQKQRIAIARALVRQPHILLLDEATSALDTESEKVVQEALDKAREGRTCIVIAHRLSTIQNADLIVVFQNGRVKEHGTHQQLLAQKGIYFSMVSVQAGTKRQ

EGFR wild type (EGFR WT) = EGFR wild type (EGFR WT) (Homo sapiens (Human), UniProt P00533); experiment: Cellular Phosphorylation Assay, Assay 5 (EGF-stimulated EGFR phosphorylation, NIH 3T3 cells); assay type: cell-based
[3] = target: MDR1 (P-gp) transfected LLC-PK1 cells (Homo sapiens (Human), UniProt P08183)
[4] = target: BCRP transfected MDCKII cells (Homo sapiens (Human), UniProt Q9UNQ0); experiment: BCRP MDCKII efflux assay (Assay 7); assay type: in vitro ADME; conditions: efflux ratio Papp(B-A)/Papp(A-B)
Chain of BCRP transfected MDCKII cells (Q9UNQ0 whole entry): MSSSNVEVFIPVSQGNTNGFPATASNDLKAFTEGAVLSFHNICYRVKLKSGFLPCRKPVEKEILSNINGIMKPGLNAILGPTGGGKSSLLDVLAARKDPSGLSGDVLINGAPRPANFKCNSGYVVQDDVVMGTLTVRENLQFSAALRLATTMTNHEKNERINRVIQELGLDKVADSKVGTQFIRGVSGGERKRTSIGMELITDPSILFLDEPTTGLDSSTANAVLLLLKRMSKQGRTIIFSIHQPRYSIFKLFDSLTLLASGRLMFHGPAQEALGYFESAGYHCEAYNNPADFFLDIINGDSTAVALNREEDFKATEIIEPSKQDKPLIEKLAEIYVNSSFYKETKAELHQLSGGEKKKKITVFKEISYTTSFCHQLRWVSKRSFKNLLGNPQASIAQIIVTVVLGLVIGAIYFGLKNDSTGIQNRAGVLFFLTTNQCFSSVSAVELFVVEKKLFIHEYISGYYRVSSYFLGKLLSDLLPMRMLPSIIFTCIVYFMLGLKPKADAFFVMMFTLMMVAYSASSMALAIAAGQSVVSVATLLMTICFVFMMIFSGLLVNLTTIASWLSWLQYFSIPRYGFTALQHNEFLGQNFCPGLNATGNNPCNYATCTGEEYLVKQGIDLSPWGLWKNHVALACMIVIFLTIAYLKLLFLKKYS
Method: as §1, §2

BCRP [5] = target: BCRP (Homo sapiens (Human), UniProt Q9UNQ0); experiment: BCRP MDCKII efflux assay (Assay 7); assay type: in vitro ADME; conditions: dog; efflux ratio Papp(B-A)/Papp(A-B), BCRP MDCKII cells; read-out: Assay 7 Pe Ratio
Chain of BCRP (Homo sapiens (Human), UniProt Q9UNQ0) (Q9UNQ0 whole entry): as above
Method: as §1, §2

[6] = EGF-stimulated EGFR WT phosphorylation
[7] = cellular ErbB2 YVMA phosphorylation
[8] = cellular EGFR WT phosphorylation, EGF-stimulated

SMILES | IC50 ([1]; ErbB2 YVMA phosphorylation) | IC50 (ErbB2 WT; ErbB2 WT enzyme) | IC50 (EGFR; EGFR enzyme) | efflux ratio at 2 h, 1 µM (BCRP [2]) | efflux ratio at 2 h, 1 µM (MDR1 (P-gp)) | IC50 (EGFR wild type (EGFR WT); [6]) | IC50 [1, 7] | IC50 (ErbB2 WT; ErbB2 WT enzyme assay) | IC50 (EGFR; EGFR enzyme assay) | IC50 (EGFR wild type (EGFR WT); [8]) | efflux ratio at 2 h, 1 µM (BCRP [5]) | efflux ratio [3] | Assay 7 Pe Ratio [4]
C=CC(=O)N1CCC[C@@H](c2ccc3ncnc(Nc4ccc(Oc5ccc6c(c5)ncn6C)c(C)c4F)c3n2)C1 (racemic) [Example 144, rac-(R)-1-(3-(4-((2-fluoro-3-methyl-4-((1-methyl-1H-benzo[d]imidazol-5-yl)oxy)phenyl)amino)pyrido[3,2-d]pyrimidin-6-yl)piperidin-1-yl)prop-2-en-1-one] | 11.7 nM | 25 nM | 650 nM | 0.6 | 1.2 | 1070 nM | – | – | – | – | – | – | –
C=CC(=O)N1[C@@H]2CC[C@H]1C[C@@H](c1ccc3ncnc(Nc4ccc(Oc5cnc6c(c5)ncn6C)c(C)c4F)c3n1)C2 [Example 227, 1-((1R,3r,5S)-3-(4-((2-fluoro-3-methyl-4-((3-methyl-3H-imidazo[4,5-b]pyridin-6-yl)oxy)phenyl)amino)pyrido[3,2-d]pyrimidin-6-yl)-8-azabicyclo[3.2.1]octan-8-yl)prop-2-en-1-one] | 26.8 nM | 138 nM | 3790 nM | – | – | 5000 nM | – | – | – | – | – | 1.2 | 5.5
C=CC(=O)N1CC2CCC(C1)N2c1ccc2ncnc(Nc3cc(C)c(Oc4ccn5ncnc5c4)cc3F)c2n1 [Example 454] | – | – | – | 0.6 | 0.8 | – | 14.1 nM | 35.6 nM | 1180 nM | 680 nM | – | – | –
C=CC(=O)N1CCC(Oc2ccc3ncnc(Nc4ccc(Oc5ccn6ncnc6c5)c(Cl)c4F)c3n2)CC1 [Example 13, 1-(4-((4-((4-([1,2,4]triazolo[1,5-a]pyridin-7-yloxy)-3-chloro-2-fluorophenyl)amino)pyrido[3,2-d]pyrimidin-6-yl)oxy)piperidin-1-yl)prop-2-en-1-one] | 4 nM | 8.4 nM | 220 nM | – | 1.2 | 104 nM | – | – | – | – | 1.4 | – | –
C=CC(=O)N1CCN(c2ccc3ncnc(Nc4cc(C)c(Oc5ccc6c(c5)ncn6C)cc4F)c3n2)CC1(C)C [Example 82, 1-(4-(4-((2-fluoro-5-methyl-4-((1-methyl-1H-benzo[d]imidazol-5-yl)oxy)phenyl)amino)pyrido[3,2-d]pyrimidin-6-yl)-2,2-dimethylpiperazin-1-yl)prop-2-en-1-one] | 12.6 nM | 58.2 nM | 7320 nM | – | 2 | 4400 nM | – | – | – | – | 3.9 | – | –
C=CC(=O)N1CCC(Sc2ccc3ncnc(Nc4cc(C)c(Oc5ccc6c(c5)ncn6C)cc4F)c3n2)CC1 [Example 64, 1-(4-((4-((2-fluoro-5-methyl-4-((1-methyl-1H-benzo[d]imidazol-5-yl)oxy)phenyl)amino)pyrido[3,2-d]pyrimidin-6-yl)thio)piperidin-1-yl)prop-2-en-1-one] | 32.9 nM | 37.4 nM | ≥ 10000 nM | – | 2.4 | ≥ 5000 nM | – | – | – | – | 4.2 | – | –
C=CC(=O)N1CC[C@@H](c2ccc3ncnc(Nc4ccc(Oc5ccn6ncnc6c5)c(C)c4F)c3n2)CC12CC2 (single isomer, unassigned) [Example 173] | 21 nM | 105 nM | ≥ 10000 nM | – | 0.7 | 2310 nM | – | – | – | – | 3 | – | –
C=CC(=O)N1C[C@H](c2ccc3ncnc(Nc4ccc(Oc5ccc6c(c5)ncn6C)c(C)c4F)c3n2)CC[C@H]1C [Example 169, 1-((2R,5R)-5-(4-((2-fluoro-3-methyl-4-((1-methyl-1H-benzo[d]imidazol-5-yl)oxy)phenyl)amino)pyrido[3,2-d]pyrimidin-6-yl)-2-methylpiperidin-1-yl)prop-2-en-1-one] | 23.6 nM | 111 nM | 1810 nM | – | 1 | ≥ 5000 nM | – | – | – | – | 2.1 | – | –
C=CC(=O)N1[C@@H]2CC[C@H]1[C@H](c1ccc3ncnc(Nc4ccc(Oc5ccn6ncnc6c5)c(C)c4F)c3n1)C2 (racemic) [Example 213, rac-1-((1 S,2R,4R)-2-(4-((4-([1,2,4]triazolo[1,5-a]pyridin-7-yloxy)-2-fluoro-3-methylphenyl)amino)pyrido[3,2-d]pyrimidin-6-yl)-7-azabicyclo[2.2.1]heptan-7-yl)prop-2-en-1-one] | 23.9 nM | 7.3 nM | 264 nM | – | 1.5 | ≥ 5000 nM | – | – | – | – | 3.4 | – | –
C=CC(=O)N1C[C@H]2C[C@@H]1CN(c1ccc3ncnc(Nc4ccc(Oc5ccc6c(c5)ncn6C)c(C)c4F)c3n1)C2 [Example 118, 1-((1S,5R)-3-(4-((2-fluoro-3-methyl-4-((1-methyl-1H-benzo[d]imidazol-5-yl)oxy)phenyl)amino)pyrido[3,2-d]pyrimidin-6-yl)-3,6-diazabicyclo[3.2.1]octan-6-yl)prop-2-en-1-one] | 10.1 nM | 54.1 nM | 6090 nM | – | 2.2 | ≥ 5000 nM | – | – | – | – | 4.1 | – | –
C=CC(=O)N1[C@@H]2CC[C@H]1[C@H](c1ccc3ncnc(Nc4ccc(Oc5cnc6c(c5)ncn6C)c(C)c4F)c3n1)C2 [Example 419] | – | – | – | – | 0.8 | – | 21.5 nM | 42.3 nM | 1040 nM | ≥ 5000 nM | 2.2 | – | –
C=CC(=O)N1C[C@@H]2C[C@H]1CN(c1ccc3ncnc(Nc4ccc(Oc5ccc6c(c5)ncn6C)c(C)c4F)c3n1)C2 [Example 109, 1-((1R,5S)-3-(4-((2-fluoro-3-methyl-4-((1-methyl-1H-benzo[d]imidazol-5-yl)oxy)phenyl)amino)pyrido[3,2-d]pyrimidin-6-yl)-3,6-diazabicyclo[3.2.1]octan-6-yl)prop-2-en-1-one] | 13.4 nM | 282 nM | ≥ 10000 nM | – | 2 | ≥ 5000 nM | – | – | – | – | 2 | – | –
C=CC(=O)N1CC[C@@H]2C[C@H]1CN2c1ccc2ncnc(Nc3cc(Cl)c(Oc4ccn5ncnc5c4)cc3F)c2n1 [Example 177, 1-((1 S,5R)-6-(4-((4-([1,2,4]triazolo[1,5-a]pyridin-7-yloxy)-5-chloro-2-fluorophenyl)amino)pyrido[3,2-d]pyrimidin-6-yl)-2,6-diazabicyclo[3.2.1]octan-2-yl)prop-2-en-1-one] | 5.7 nM | 9.7 nM | 129 nM | – | 1.9 | 156 nM | – | – | – | – | 3.6 | – | –

Now from value to compound, other results behind:

IC50 ([1]; ErbB2 YVMA phosphorylation) | IC50 (ErbB2 WT; ErbB2 WT enzyme) | IC50 (EGFR; EGFR enzyme) | efflux ratio at 2 h, 1 µM (BCRP [2]) | efflux ratio at 2 h, 1 µM (MDR1 (P-gp)) | IC50 (EGFR wild type (EGFR WT); [6]) | IC50 [1, 7] | IC50 (ErbB2 WT; ErbB2 WT enzyme assay) | IC50 (EGFR; EGFR enzyme assay) | IC50 (EGFR wild type (EGFR WT); [8]) | efflux ratio at 2 h, 1 µM (BCRP [5]) | SMILES | efflux ratio [3] | Assay 7 Pe Ratio [4]
16.7 nM | 13.3 nM | 401 nM | 0.6 | 1.1 | 1450 nM | – | – | – | – | – | C=CC(=O)N1C[C@@H]2C[C@H]1C[C@H]2c1ccc2ncnc(Nc3ccc(Oc4ccc5c(c4)ncn5C)c(C)c3F)c2n1 (racemic) [Example 203, rac-1-((1S,4R,5R)-5-(4-((2-fluoro-3-methyl-4-((1-methyl-1H-benzo[d]imidazol-5-yl)oxy)phenyl)amino)pyrido[3,2-d]pyrimidin-6-yl)-2-azabicyclo[2.2.1]heptan-2-yl)prop-2-en-1-one] | – | –
– | – | – | – | 0.9 | – | 27.1 nM | 234 nM | ≥ 10000 nM | ≥ 5000 nM | 4.8 | C=CC(=O)N1CCN(c2ccc3ncnc(Nc4cc(C)c(Oc5cnc6c(c5)ncn6C)cc4F)c3n2)C[C@H]1C1CC1 [Example 356] | – | –
– | – | – | – | 1.5 | – | 27.3 nM | 494 nM | ≥ 10000 nM | ≥ 5000 nM | 4.8 | C=CC(=O)N1C[C@@H]2C[C@H]1CN(c1ccc3ncnc(Nc4ccc(Oc5ccn6ncnc6c5)c(C)c4F)c3n1)C2 [Example 251] | – | –
– | – | – | – | 1.3 | – | 27.9 nM | 13.4 nM | ≥ 10000 nM | 716 nM | 3.6 | C=CC(=O)N1CCCN(c2ccc3ncnc(Nc4ccc(Oc5ccn6ncnc6c5)c(Cl)c4F)c3n2)CC1(C)C [Example 261] | – | –
32.7 nM | 24.4 nM | 1420 nM | – | 1.4 | ≥ 5000 nM | – | – | – | – | 2.6 | C=CC(=O)N1C[C@H]2CC[C@@H]1C[C@H]2c1ccc2ncnc(Nc3ccc(Oc4ccn5ncnc5c4)c(C)c3F)c2n1 (racemic) [Example 218, rac-1-((1R,4S,5R)-5-(4-((4-([1,2,4]triazolo[1,5-a]pyridin-7-yloxy)-2-fluoro-3-methylphenyl)amino)pyrido[3,2-d]pyrimidin-6-yl)-2-azabicyclo[2.2.2]octan-2-yl)prop-2-en-1-one] | – | –
8.4 nM | 26.5 nM | 422 nM | – | 1.2 | 768 nM | – | – | – | – | 2 | C=CC(=O)N1CC[C@@H]2C[C@H](c3ccc4ncnc(Nc5cc(C)c(Oc6ccn7ncnc7c6)cc5F)c4n3)C[C@@H]21 (single isomer, unassigned) [Example 225] | – | –
